Data reported in patent US11471391B2, “Cosmetic composition for inhibiting sebum hypersecretion” (NeoPharm Co., Ltd., priority 2019, dated 2022).

Experiments:
Assay type in all cases: cell-based
human sebocytes [1] = test: Nile red staining of human sebocytes, microscopic image; settings: Nile red 1 ug/ml for 30 minutes, FIG. 3
Protocol: (§1) 1×10^5 (1 mL/well) of human sebocytes were adhered on a 12-well plate containing a Dulbecco's modified eagle medium (DMEM)/F12 (1:1) containing 10% fetal bovine serum (FBS).

human sebocytes [2] = test: Effect of inhibiting sebum secretion, oil red O staining of IGF-1-treated human sebocytes
Protocol: 2. Effect of Inhibiting Sebum Secretion
as §1
In FIG. 2, each sample of a control group (1 μM) which was previously treated with IGF-1 (50 ng/ml) after culturing for 24 hours and an experimental group in which the control group was treated with Compound 1 of Example 1 (20 μM) was stained after 24 hours with a 0.5% oil red O solution for 1 hour and treated with 100% isopropanol, and an absorbance was measured by a 500 nm ELISA reader.

PPAR-γ = test: Effect of inhibiting expression of PPAR-γ by Western blot in IGF-1-treated human sebocytes; settings: human sebocytes pretreated with IGF-1 (50 ng/ml), sample 20 μM, 24 hours, FIG. 1
Protocol: 1. Effect of Inhibiting Expression of PPAR-γ by Western Blot
In the present invention, 1.5×10^5 (1 mL/well) of human sebocytes were adhered on a 12-well plate containing a Dulbecco's modified eagle medium (DMEM)/F12 (1:1) containing 10% fetal bovine serum (FBS). After culturing for 24 hours, cells were collected after 24 hours from each sample of a control group (1 μM) in which the medium was replaced with a serum-free medium and previously treated with IGF-1 (50 ng/ml) and an experimental group in which the control group was treated with Compound 1 of Example 1 (20 μM). In addition, in the present invention, the control means a sample which was not treated with IGF-1, and the comparative group means a sample in which the control group was treated with retinoic acid (20 μM). Thereafter, expression of PPAR-γ protein which is a representative lipid synthetic transcription factor of sebocytes was analyzed by the Western blot, for each of these samples.

CCCCCCCC(=O)C(CCCCCC)C(=O)N[C@@H](C)C(=O)OC (stereo partly shown) [Compound 1, methyl (2-hexyl-3-oxodecanoyl)alaninate]
differentiation of fat cells (Nile red staining, microscopic image) (human sebocytes [1]): differentiation of fat cells is more effectively derived
sebum production amount (fat content in sebocytes, oil red O, absorbance 500 nm) (human sebocytes [2]; human sebocytes pretreated with IGF-1 (50 ng/ml), 20 μM, 24 hours, FIG. 2): remarkably decreased
dependence of the sebum production decrease on treatment concentration (human sebocytes [2]; human sebocytes pretreated with IGF-1, oil red O, each concentration): significantly increased depending on the treatment concentration
inhibition of PPAR-γ activation/expression (Western blot) (PPAR-γ): effect of inhibiting PPAR-γ activity is remarkable
